Results reported in article PMC4303209, “A novel phosphatidylinositol 3-kinase (PI3K) inhibitor directs a potent FOXO-dependent, p53-independent cell cycle arrest phenotype characterized by the differential induction of a subset of FOXO-regulated genes” (Breast Cancer Research : BCR, 2014).

System: MCF-7 breast cancer cells
Test: Microarray gene expression analysis (Agilent whole human genome 4 x 44K; compound vs DMSO, LIMMA log2 fold change)
Format: cell-based

Cn1ncc2c(N3CCOCC3)nc(-c3cccc(O)c3)nc21 [ETP-45658]
BCL11B log2FC (Apoptosis genes, Gene 64919): 0.176
MRPL41 log2FC (Apoptosis genes, Gene 64975): -0.545
PINK1 log2FC (Apoptosis genes, Gene 65018): 1.625
PRAMEF1 log2FC (Apoptosis genes, Gene 65121): -0.072
PRAMEF2 log2FC (Apoptosis genes, Gene 65122): 0.062
UBE2Z log2FC (Apoptosis genes, Gene 65264): -0.414
TMEM109 log2FC (Apoptosis genes, Gene 79073): -0.626
CHAC1 log2FC (Apoptosis genes, Gene 79094): -0.144
TNIP2 log2FC (Apoptosis genes, Gene 79155): -0.126
PLEKHF1 log2FC (Apoptosis genes, Gene 79156): -0.469
THOC6 log2FC (Apoptosis genes, Gene 79228): -0.373
BCL2L14 log2FC (Apoptosis genes, Gene 79370): -0.145
BIRC7 log2FC (Apoptosis genes, Gene 79444): -0.043
ELMO3 log2FC (Apoptosis genes, Gene 79767): -0.597
SLTM log2FC (Apoptosis genes, Gene 79811): 0.763
ZC3H12A log2FC (Apoptosis genes, Gene 80149): -1.168
RNF34 log2FC (Apoptosis genes, Gene 80196): -0.174
ELL3 log2FC (Apoptosis genes, Gene 80237): 1.095
CPEB4 log2FC (Apoptosis genes, Gene 80315): 0.577
COL18A1 log2FC (Apoptosis genes, Gene 80781): -0.387
SGPP1 log2FC (Apoptosis genes, Gene 81537): -0.165
SHARPIN log2FC (Apoptosis genes, Gene 81858): -0.232
APH1B log2FC (Apoptosis genes, Gene 83464): -0.559
RASSF5 log2FC (Apoptosis genes, Gene 83593): -0.091
SOX7 log2FC (Apoptosis genes, Gene 83595): -0.214
BCL2L12 log2FC (Apoptosis genes, Gene 83596): -0.236
ITCH log2FC (Apoptosis genes, Gene 83737): 0.721
CDCA7 log2FC (Apoptosis genes, Gene 83879): 0.213
TATDN1 log2FC (Apoptosis genes, Gene 83940): 0.636
TM2D1 log2FC (Apoptosis genes, Gene 83941): 0.088
OBSCN log2FC (Apoptosis genes, Gene 84033): 0.277
TRAF7 log2FC (Apoptosis genes, Gene 84231): -0.191
RHBDD1 log2FC (Apoptosis genes, Gene 84236): -0.533
TCHP log2FC (Apoptosis genes, Gene 84260): 0.198
ZDHHC16 log2FC (Apoptosis genes, Gene 84287): -0.471
ING5 log2FC (Apoptosis genes, Gene 84289): -0.932
AKT1S1 log2FC (Apoptosis genes, Gene 84335): -0.939
CARD11 log2FC (Apoptosis genes, Gene 84433): 0.083
SYVN1 log2FC (Apoptosis genes, Gene 84447): 0.455
ZC3H8 log2FC (Apoptosis genes, Gene 84524): 1.519
FNDC1 log2FC (Apoptosis genes, Gene 84624): -0.102
CARD6 log2FC (Apoptosis genes, Gene 84674): 0.198
HINT2 log2FC (Apoptosis genes, Gene 84681): -0.153
BEX2 log2FC (Apoptosis genes, Gene 84707): 0.736
TNS4 log2FC (Apoptosis genes, Gene 84951): -1.366
ATG4D log2FC (Apoptosis genes, Gene 84971): -0.461
SCRT2 log2FC (Apoptosis genes, Gene 85508): -0.569
WNT3A log2FC (Apoptosis genes, Gene 89780): -0.585
FGD3 log2FC (Apoptosis genes, Gene 89846): 0.596
UNC5A log2FC (Apoptosis genes, Gene 90249): -0.468
BMF log2FC (Apoptosis genes, Gene 90427): 2.299
MTDH log2FC (Apoptosis genes, Gene 92140): 0.563
TIMM50 log2FC (Apoptosis genes, Gene 92609): -0.439
TP53INP1 log2FC (Apoptosis genes, Gene 94241): 0.920
EGLN2 log2FC (Apoptosis genes, Gene 112398): 0.272
EGLN3 log2FC (Apoptosis genes, Gene 112399): -0.474
PNMA5 log2FC (Apoptosis genes, Gene 114824): 0.435
SLC5A11 log2FC (Apoptosis genes, Gene 115584): 0.136
TWIST2 log2FC (Apoptosis genes, Gene 117581): -0.722
RFFL log2FC (Apoptosis genes, Gene 117584): -0.488
FGD4 log2FC (Apoptosis genes, Gene 121512): 0.637
RXFP2 log2FC (Apoptosis genes, Gene 122042): -0.049
DCUN1D3 log2FC (Apoptosis genes, Gene 123879): -1.081
ACVR1C log2FC (Apoptosis genes, Gene 130399): 0.259
IL31RA log2FC (Apoptosis genes, Gene 133396): 0.071
JMY log2FC (Apoptosis genes, Gene 133746): 1.016
UNC5D log2FC (Apoptosis genes, Gene 137970): 0.118
DYNLL2 log2FC (Apoptosis genes, Gene 140735): -0.697
PSMA8 log2FC (Apoptosis genes, Gene 143471): 0.068
TICAM1 log2FC (Apoptosis genes, Gene 148022): -0.493
BNIPL log2FC (Apoptosis genes, Gene 149428): -0.061
ZSWIM2 log2FC (Apoptosis genes, Gene 151112): 0.088
DAB2IP log2FC (Apoptosis genes, Gene 153090): -0.220
SLC5A8 log2FC (Apoptosis genes, Gene 160728): -0.070
PTCRA log2FC (Apoptosis genes, Gene 171558): -0.425
HIGD2A log2FC (Apoptosis genes, Gene 192286): -0.398
FLCN log2FC (Apoptosis genes, Gene 201163): 0.968
HIPK1 log2FC (Apoptosis genes, Gene 204851): -0.153
UNC5B log2FC (Apoptosis genes, Gene 219699): -0.570
RNF152 log2FC (Apoptosis genes, Gene 220441): -0.038
FGD2 log2FC (Apoptosis genes, Gene 221472): -0.102
MPV17L log2FC (Apoptosis genes, Gene 255027): -0.367
TMEM23 log2FC (Apoptosis genes, Gene 259230): 0.357
MAGI3 log2FC (Apoptosis genes, Gene 260425): 0.325
BLOC1S2 log2FC (Apoptosis genes, Gene 282991): 0.498
NRBP2 log2FC (Apoptosis genes, Gene 340371): -0.074
NANOS3 log2FC (Apoptosis genes, Gene 342977): -0.124
AMIGO2 log2FC (Apoptosis genes, Gene 347902): 0.532
C6orf120 log2FC (Apoptosis genes, Gene 387263): -0.615
GDF6 log2FC (Apoptosis genes, Gene 392255): -0.089
MYO18A log2FC (Apoptosis genes, Gene 399687): -0.470
PRAMEF3 log2FC (Apoptosis genes, Gene 401940): -0.272
ADIPOQ log2FC (Apoptosis genes, Gene 414149): -0.245
PIM3 log2FC (Apoptosis genes, Gene 415116): 0.693
LGALS7 log2FC (Apoptosis genes, Gene 653499): -0.163
CARD9 log2FC (Apoptosis genes, Gene 728489): -0.457
PDCD6 log2FC (Apoptosis genes, Gene 728613): -0.285
RRN3 log2FC (Apoptosis genes, Gene 730092): 0.619
CD24 log2FC (Apoptosis genes, Gene 100133941): 0.127
ACVR1 log2FC (Gene 90, cell cycle genes): 0.534
ACVR1B log2FC (Gene 91, cell cycle genes): -0.563
ADCYAP1 log2FC (Gene 116, cell cycle genes): 0.068
AHR log2FC (Gene 196, cell cycle genes): 0.995
AIF1 log2FC (Gene 199, cell cycle genes): -0.077
AK1 log2FC (Gene 203, cell cycle genes): -0.344
AKT1 log2FC (Gene 207, cell cycle genes): -0.608
AKT2 log2FC (Gene 208, cell cycle genes): -0.554
ALOX15B log2FC (Gene 247, cell cycle genes): -0.102
ANK3 log2FC (Gene 288, cell cycle genes): 0.532
ANXA1 log2FC (Gene 301, cell cycle genes): 0.991
ANXA11 log2FC (Gene 311, cell cycle genes): -0.496
APBB1 log2FC (Gene 322, cell cycle genes): 0.078
APBB2 log2FC (Gene 323, cell cycle genes): -0.357
APEX1 log2FC (Gene 328, cell cycle genes): 0.266
BIRC2 log2FC (Gene 329, cell cycle genes): 0.082
APP log2FC (Gene 351, cell cycle genes): 0.379
ARF6 log2FC (Gene 382, cell cycle genes): -0.682
RHOB log2FC (Gene 388, cell cycle genes): -0.133
RHOC log2FC (Gene 389, cell cycle genes): -0.491
ARL2 log2FC (Gene 402, cell cycle genes): -0.140
ARL3 log2FC (Gene 403, cell cycle genes): 0.192
ASNS log2FC (Gene 440, cell cycle genes): -0.404
BACH1 log2FC (Gene 571, cell cycle genes): 0.774
BARD1 log2FC (Gene 580, cell cycle genes): 0.487
BBS4 log2FC (Gene 585, cell cycle genes): 1.207
CCND1 log2FC (Gene 595, cell cycle genes): -1.564
BCL2 log2FC (Gene 596, cell cycle genes): -0.310
BCL2L1 log2FC (Gene 598, cell cycle genes): -0.991
BCR log2FC (Gene 613, cell cycle genes): -0.914
BID log2FC (Gene 637, cell cycle genes): -0.095
BMP2 log2FC (Gene 650, cell cycle genes): -0.038
BMP7 log2FC (Gene 655, cell cycle genes): -0.344
DST log2FC (Gene 667, cell cycle genes): 0.571
BRCA1 log2FC (Gene 672, cell cycle genes): 0.792
BRDT log2FC (Gene 676, cell cycle genes): 0.068
BUB1 log2FC (Gene 699, cell cycle genes): 0.803
CALM1 log2FC (Gene 801, cell cycle genes): 0.216
CALR log2FC (Gene 811, cell cycle genes): -0.081
CAMK2A log2FC (Gene 815, cell cycle genes): 0.024
CAMK2D log2FC (Gene 817, cell cycle genes): 0.613
CAMK2G log2FC (Gene 818, cell cycle genes): 0.874
CASP2 log2FC (Gene 835, cell cycle genes): -0.918
CAV2 log2FC (Gene 858, cell cycle genes): 0.696
RUNX3 log2FC (Gene 864, cell cycle genes): -0.494
CCNA2 log2FC (Gene 890, cell cycle genes): -0.047
CCNB1 log2FC (Gene 891, cell cycle genes): 0.072
CCNC log2FC (Gene 892, cell cycle genes): 0.257
CCND2 log2FC (Gene 894, cell cycle genes): -1.006
CCND3 log2FC (Gene 896, cell cycle genes): -0.730
CCNE1 log2FC (Gene 898, cell cycle genes): -0.471
CCNG1 log2FC (Gene 900, cell cycle genes): 0.908
CCNG2 log2FC (Gene 901, cell cycle genes): 3.913
CD28 log2FC (Gene 940, cell cycle genes): 0.087
CDC5L log2FC (Gene 988, cell cycle genes): 1.004
CDC6 log2FC (Gene 990, cell cycle genes): -0.800
CDC20 log2FC (Gene 991, cell cycle genes): -0.346
CDC25A log2FC (Gene 993, cell cycle genes): -1.970
